Drawing on the OligoGym collection, this text covers remaining target (mRNA or protein) (fraction of control) for 119 sequences.

These antisense oligonucleotides have a phosphorothioate backbone; sugars and methylation of C are not fully specified.
Further: test concentration or dose not given here.

The first series deals with GNA12. As to conditions: ASO.
With ATGATGGAGACGTTGAAG, the remaining target (mRNA or protein) (fraction of control) was at least 1.
As for CCGTCGAAGCACTGGAAC, the remaining target (mRNA or protein) (fraction of control) came to 0.8.
The sequence TCGAAGATGGTGTCGCGG had a remaining target (mRNA or protein) (fraction of control) of 0.98.
Take GGTGCGCCTGTCCTCCAT: the remaining target (mRNA or protein) (fraction of control) amounted to 0.33.
The same measure, in the same setting: the same measure for AGCCCTTGAGGATGTTGT: 0.94.
The same measure, in the same setting: the result for CCCTGATGCCAGAATCCC reads 0.39; that for GCGCCTTCTGGTCGAACT, 0.72.
Sequence CAGAATCCCTCCAGAGTG had a remaining target (mRNA or protein) (fraction of control) of 0.37.
CTGAGGGTCCGCACCACC displayed a remaining target (mRNA or protein) (fraction of control) of at least 1.
For the sequence GGTTCTCCTGCAGGATGG, the remaining target (mRNA or protein) (fraction of control) is 0.93.
GGATGATGCGCATCTGCT returned a remaining target (mRNA or protein) (fraction of control) of at least 1.
GCTCACGGTCTTCACCTT: the remaining target (mRNA or protein) (fraction of control) is at least 1.
In turn, AATTCAGCTGGCCGATCC showed a remaining target (mRNA or protein) (fraction of control) of 0.59.
For the sequence CTTGGTGGCTTTCCTAGC, the remaining target (mRNA or protein) (fraction of control) was at least 1.
The sequence CCGCTGGCCGCCCACATC yielded a remaining target (mRNA or protein) (fraction of control) of 0.47.
TTGTTGACGATGGTCTCG registered a remaining target (mRNA or protein) (fraction of control) of 0.73.
TCTGGTCGAACTCGCGGC had a remaining target (mRNA or protein) (fraction of control) of 0.7.
Regarding CACATCCACCATCTTAAA, the remaining target (mRNA or protein) (fraction of control) was at least 1.
Sequence CCAGCAGCGCGTCGATGT returned a remaining target (mRNA or protein) (fraction of control) of 0.29.
For the sequence TCAGGAACATCCCATGCT, the remaining target (mRNA or protein) (fraction of control) was found to be 0.79.
Sequence CTGGAACCACTTCTGGCG yielded a remaining target (mRNA or protein) (fraction of control) of 0.89.
GTCGATGTCGCGGCTACG had a remaining target (mRNA or protein) (fraction of control) of at least 1.
Consider AAGTCATGCTCCACAATT, for which the remaining target (mRNA or protein) (fraction of control) was 0.64.
For the sequence AGCAGGCAGCGGCTGAGG, the remaining target (mRNA or protein) (fraction of control) worked out at 0.93.
CTGGAGGAGACCATGAAC: the remaining target (mRNA or protein) (fraction of control) is at least 1.
In turn, AAGATGTTCATGGACTCC displayed a remaining target (mRNA or protein) (fraction of control) of 0.33.
On to CGAAGGCCATCAGGAACA, for which the remaining target (mRNA or protein) (fraction of control) was at least 1.
AGGATGTTGTCGAAGATG had a remaining target (mRNA or protein) (fraction of control) of 0.77.
CCGATCCGGTCCAAGTTG had a remaining target (mRNA or protein) (fraction of control) of 0.38.

Another series concerns the target ICAM1. The conditions noted are these: ASO.
GAGGCTGAGGTGGGAGGA yielded a remaining target (mRNA or protein) (fraction of control) of 0.98.
Same read-out and setting: the same measure for AGCCATAGCGAGGC: 0.64; for TTGAGAAAGCTTTATTAACT: at least 1; for TCTGAGTAGCAGAGGAGCTCAG: 0.33.
In turn, GCTACACATGTCTATGGAGGG returned a remaining target (mRNA or protein) (fraction of control) of 0.35.
For CAAGTGTGCATCCCCCAGGC, the remaining target (mRNA or protein) (fraction of control) was determined as 0.
For the sequence AGCCATAGCGAGGCTGAGGTT, the remaining target (mRNA or protein) (fraction of control) turned out to be 0.2.
In turn, GGTTGCAACTCTGAG came in with a remaining target (mRNA or protein) (fraction of control) of 0.36.
AGCGAGGCTG returned a remaining target (mRNA or protein) (fraction of control) of 0.97.
Consider AGCGAGGCTGAG, for which the remaining target (mRNA or protein) (fraction of control) was 0.79.
AGCCACCTGGGGGCCAAGGGG came in with a remaining target (mRNA or protein) (fraction of control) of at least 1.
For CCCCGACTCACCTGGGAACAG, the remaining target (mRNA or protein) (fraction of control) was determined as 0.66.
As to GCGTCGACTGGGGCGCGTGAT, the remaining target (mRNA or protein) (fraction of control) came out at 0.95.

The next series deals with PDPK1. The conditions noted are these: ASO.
On to GCTGCAAGGTTTCCGCCT, for which the remaining target (mRNA or protein) (fraction of control) was at least 1.
For the sequence TCCTGTTAGGCGTGTGGA, the remaining target (mRNA or protein) (fraction of control) was 0.53.
TTGGCCCTGGCTTGTTTG displayed a remaining target (mRNA or protein) (fraction of control) of 0.23.
On to GCTGCCTCCAAACCTCCT, for which the remaining target (mRNA or protein) (fraction of control) is at least 1.
CTGCTCTATGTTGCTGCC yielded a remaining target (mRNA or protein) (fraction of control) of 0.55.
The sequence CAGGACAACCGTGGAAAA had a remaining target (mRNA or protein) (fraction of control) of at least 1.
Sequence GGACTTCTCCGTGAGCAG returned a remaining target (mRNA or protein) (fraction of control) of 0.28.
Sequence GTTCAAAGGAGTTCGAGT yielded a remaining target (mRNA or protein) (fraction of control) of 0.5.
Turning to GCATATTCTCTGGAGGTT, the remaining target (mRNA or protein) (fraction of control) was at least 1.
Take TTGCTGTTCCAAAATCTG: the remaining target (mRNA or protein) (fraction of control) is at least 1.
Take GTGCTGGACTCAGTCTGG: the remaining target (mRNA or protein) (fraction of control) stood at 0.51.
The sequence CTGAAATGTGAAGTAAAG displayed a remaining target (mRNA or protein) (fraction of control) of 0.45.
In turn, CTCAGGCCGCTTCTTCCG displayed a remaining target (mRNA or protein) (fraction of control) of 0.53.
CAGCTTCTCGTCGTCCTG showed a remaining target (mRNA or protein) (fraction of control) of 0.26.
Still for that read-out and setting: the result for AACAACAACCTCTTCTCA reads 0.7; that for AGGCGCGACATGACATCC, 0.25.
Consider TAAGTCCAGTTCAAAGGA, for which the remaining target (mRNA or protein) (fraction of control) worked out at 0.75.
GAGTTGGCCCTGGCTTGT showed a remaining target (mRNA or protein) (fraction of control) of 0.5.
With AGACTTTTGCTGTTCCAA, the remaining target (mRNA or protein) (fraction of control) was determined as 0.28.
On to AAAAGAGCCTTCCCCAAG, for which the remaining target (mRNA or protein) (fraction of control) turned out to be 0.88.
Turning to CAGTCTGGGTCCTCACCA, the remaining target (mRNA or protein) (fraction of control) came to 0.54.
For ATAGCAGTCCTCGTCGTC, the remaining target (mRNA or protein) (fraction of control) was determined as 0.57.
The sequence CAAGAGCCCAAAGGTCTG yielded a remaining target (mRNA or protein) (fraction of control) of at least 1.
Same read-out and setting: the result for GACATCCCGCTCTCTGGT reads 0.68; that for CTGGTATCGCTGCCTCCA, 0.22.
As for CACTGCACAGCGGCGTCC, the remaining target (mRNA or protein) (fraction of control) was at least 1.
TAAAGCTTAACAAAGAAG gave a remaining target (mRNA or protein) (fraction of control) of at least 1.
Sequence CTTCCATTTCCTCACAGC came in with a remaining target (mRNA or protein) (fraction of control) of 0.33.
TATGATATGTCGCTTCTC showed a remaining target (mRNA or protein) (fraction of control) of 0.42.
The same measure, in the same setting: the same measure for GCGTCCTCCTCCCCGAAG: at least 1.
In turn, ATGTGGTCCTTCTGTGAG displayed a remaining target (mRNA or protein) (fraction of control) of at least 1.
Take GTTTCCGCCAGCCTGCTT: the remaining target (mRNA or protein) (fraction of control) is at least 1.
As for ATTTTCTACAAACTGGTG, the remaining target (mRNA or protein) (fraction of control) amounted to 0.83.
The sequence GCAGGAACATAACACCAC gave a remaining target (mRNA or protein) (fraction of control) of 0.54.
AAATAAACCCTTCCGCTT returned a remaining target (mRNA or protein) (fraction of control) of 0.74.
Still for that read-out and setting: the same measure for AAAGGTCTGAACTCTTAC: 0.59.
As for GGAGGCTGGGCATGCTGC, the remaining target (mRNA or protein) (fraction of control) worked out at 0.16.
The sequence AAGGTCCCTGTGAATGAT registered a remaining target (mRNA or protein) (fraction of control) of 0.39.
Sequence CCTGAAATGTGAAGTAAA gave a remaining target (mRNA or protein) (fraction of control) of at least 1.
The same measure, in the same setting: the same measure for GTCCCTGTGAATGATGCC: 0.24; for CTCTAAAGCAGACACAAT: 0.71.
TGAGCAGCTCTGGAGAAA gave a remaining target (mRNA or protein) (fraction of control) of 0.85.
With AGCGTCCTCCTCCCCGAA, the remaining target (mRNA or protein) (fraction of control) came out at 0.87.
Sequence TTTAAGTAGTTCTCCATT showed a remaining target (mRNA or protein) (fraction of control) of 0.39.
On the same count and under the same terms, the same measure for TGGCTGGCAGGTGGTCTG: 0.2.
On to CGATCTCAGCCGTGTAAA, for which the remaining target (mRNA or protein) (fraction of control) was found to be 0.13.
Take CAAGTACTCTAAAGCAGA: the remaining target (mRNA or protein) (fraction of control) turned out to be 0.65.
In turn, ATTGTCATAATTGCCATA came in with a remaining target (mRNA or protein) (fraction of control) of 0.78.
The sequence TTTGTTGACAGGATCCAC yielded a remaining target (mRNA or protein) (fraction of control) of 0.72.
Turning to TTTATGATATGTCGCTTC, the remaining target (mRNA or protein) (fraction of control) is at least 1.
For AAGGCCGAAATACAGCTT, the remaining target (mRNA or protein) (fraction of control) stood at 0.29.
In the case of ATGTTTTCCGGTTTAAGG, the remaining target (mRNA or protein) (fraction of control) turned out to be 0.66.
Take CGAAGTTCTTGTGACCAA: the remaining target (mRNA or protein) (fraction of control) was at least 1.
With TCTGGAGAAACGTACTGC, the remaining target (mRNA or protein) (fraction of control) is at least 1.
Same read-out and setting: the same measure for ATATTCTCTGGAGGTTGC: 0.78.
As to TGGATGTGCATATCTTCA, the remaining target (mRNA or protein) (fraction of control) came out at 0.81.
The sequence CCAGCTCGGAATGGTGGG had a remaining target (mRNA or protein) (fraction of control) of 0.82.
Consider GATTTTGCGAATATATTT, for which the remaining target (mRNA or protein) (fraction of control) was at least 1.
In turn, CAAGGTTTCCGCCTCTGC registered a remaining target (mRNA or protein) (fraction of control) of 0.26.
Still for that read-out and setting: the result for CATCCCGCTCTCTGGTTA reads 0.41; that for TAAACCCTTCCGCTTATC, at least 1.
The sequence GGTGTGCTTTAAGAGGTC showed a remaining target (mRNA or protein) (fraction of control) of 0.6.
For the sequence GGTACAGGTCTCATCGAA, the remaining target (mRNA or protein) (fraction of control) came to 0.1.
The same measure, in the same setting: the result for ACTGGATGGGCACGGCGT reads 0.63.
Turning to AAACTGGCTCAGGAGATT, the remaining target (mRNA or protein) (fraction of control) came to 0.26.
In turn, AACTGGTGCCAAGGGTTT gave a remaining target (mRNA or protein) (fraction of control) of 0.54.
TGGACAAAGAAAGTTTTA returned a remaining target (mRNA or protein) (fraction of control) of at least 1.
GTGAGGAGGAGGACGAAG came in with a remaining target (mRNA or protein) (fraction of control) of 0.7.
With CTGACAGGGAGTGTGAGG, the remaining target (mRNA or protein) (fraction of control) was at least 1.
For GAAGTCCTCAGGCCGCTT, the remaining target (mRNA or protein) (fraction of control) stood at 0.28.
ATCGGGTACAGGTCTCAT came in with a remaining target (mRNA or protein) (fraction of control) of 0.68.
On the same count and under the same terms, the result for GCAGGTGTCCTGGCAGCG reads 0.49.
For the sequence AGCTGGCTGGTGGTCCTG, the remaining target (mRNA or protein) (fraction of control) was determined as 0.36.
In turn, GCATGCTGCAGGGAGCCG gave a remaining target (mRNA or protein) (fraction of control) of at least 1.
For the sequence TGGCATCTAAAACCAAAA, the remaining target (mRNA or protein) (fraction of control) was at least 1.
The sequence GGTCTCTTGCCTTAGGGA yielded a remaining target (mRNA or protein) (fraction of control) of 0.37.
Same read-out and setting: the same measure for GCTGTTCCCACGAATGAG: 0.39.
